Laboratory results taken from PubChem BioAssay (NCI).
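Interpolation was linear, between the two tested concentrations surrounding the appropriate level; five concentrations were tested over 48 hours in 96-well plates. Abbreviation: GI50, concentration required for 50% inhibition of growth. TGI marks complete inhibition of growth.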

Experiments:
Assay in all cases: inhibition of tumour cell growth, NCI panel, 48 h
COLO 205 colon = system: COLO 205 colon
DMS 114 small cell lung = system: DMS 114 small cell lung
HT29 colon = system: HT29 colon
MDA-MB-231 breast = system: MDA-MB-231 breast
NCI-H226 lung = system: NCI-H226 lung
OVCAR-8 ovarian = system: OVCAR-8 ovarian
SK-MEL-5 melanoma = system: SK-MEL-5 melanoma
SNB-78 CNS = system: SNB-78 CNS
UACC-62 melanoma = system: UACC-62 melanoma
UO-31 renal = system: UO-31 renal

Row | SMILES | TGI (COLO 205 colon) [µM] | TGI (DMS 114 small cell lung) [µM] | TGI (HT29 colon) [µM] | TGI (MDA-MB-231 breast) [µM] | TGI (NCI-H226 lung) [µM] | TGI (OVCAR-8 ovarian) [µM] | TGI (SK-MEL-5 melanoma) [µM] | TGI (SNB-78 CNS) [µM] | TGI (UACC-62 melanoma) [µM] | TGI (UO-31 renal) [µM] | GI50 (MDA-MB-231 breast) [µM] | GI50 (NCI-H226 lung) [µM]
1 | COc1ccccc1C(=O)Nc1ccc(Cl)c(C(=O)OC(C)C)c1 | > 100 | 63.8 | 88.2 | > 100 | > 100 | > 100 | > 54.8 | > 100 | > 63.4 | 27.9 | – | –
2 | C#CCOCn1cnc2c(N)ncnc21 | > 100 | > 100 | > 100 | – | > 100 | > 100 | > 100 | > 100 | > 100 | > 100 | – | –
3 | Cc1c(-c2cc(-c3ccccc3)n[nH]c2=O)c2ccccc2n1C | > 100 | > 100 | > 100 | – | > 100 | > 100 | > 100 | > 100 | > 100 | > 100 | – | –
4 | N#CC1=C(N)Oc2c(ccc3cccnc23)C1c1ccccc1 (centres undefined) | 13.2 | 7.98 | – | > 100 | 50.9 | > 100 | 13.9 | 9.36 | 24.6 | > 100 | 4.88 | 11.4
5 | COc1ccccc1NC(=O)C1=C(C)NC(C)=C(C(=O)Nc2ccccc2OC)C1c1ccc(C2C(C(=O)Nc3ccccc3OC)=C(C)NC(C)=C2C(=O)Nc2ccccc2OC)cc1 | 10.2 | 21.6 | 4.56 | – | 12.1 | 7.52 | 8.14 | 23.3 | 3.26 | 14.9 | – | –
6 | CNC(=O)NCCCCC(NC(=O)OCc1ccccc1)C(=O)OCc1ccccc1 (centres undefined) | 31.9 | 65.7 | > 100 | – | > 100 | 67.2 | > 100 | 70.8 | 47.9 | 32.7 | – | –
7 | [N-]=[N+]=Nc1nnc(CCCCc2nnc(N=[N+]=[N-])o2)o1 | > 100 | > 100 | > 100 | – | > 100 | > 100 | > 100 | > 100 | > 100 | > 100 | – | –
8 | CC/C(=N/O)C(C)C(=O)CCC(=O)Nc1ccc(Cl)cc1 (centres undefined) | > 100 | > 100 | > 100 | – | > 100 | > 100 | > 100 | > 100 | > 100 | > 100 | – | –
9 | CC1=C(C(=O)NCc2ccccc2)C(c2ccc(N(C)C)cc2)C(C(=O)NCc2ccccc2)=C(C)N1 | > 100 | > 100 | > 100 | – | > 100 | > 100 | > 100 | > 100 | > 100 | > 100 | – | –
